Laboratory results published in patent publication US20050137177A1, “Ester combination local anesthetic” (priority 2003, published 2005).

Columns and labels:
sciatic nerve [1] = assay: Rat sciatic nerve block, onset and offset (withdrawal to pinch, proprioception, motor strength); format: in vivo; details: for duration of sensory block (in words) / onset of sensory block (in words) / duration of full sensory block (until it started to decay): 2% 2-chloroprocaine; for duration of sensory block (in words) / onset of sensory block (in words): 0.22% or 0.5% tetracaine
Procedure: The onset and offset of sciatic nerve block from lidocaine, bupivacaine, tetracaine, and 2-chloroprocaine were examined in studies conducted in rats. Three different modalities were tested: (1) pain (e.g., withdrawal to pinch); (2) proprioception (e.g., the ability to place the paw squarely on the table); and (3) motor strength (e.g., the downward pressure the paw can exert on a scale). In each case, the same volume of local anesthetic agent was tested. The modality of interest was withdrawal to pinch. Each local anesthetic was tested on 5 rats of nearly identical size and age.

rat peroneal nerve = details: in vivo; for peroneal total axonal counts (± SEM): 5 days
Text: Sections of rat peroneal nerve were taken for evaluation with light microscopy five days post injection with local anesthetic(s). Specifically, each nerve was sectioned and total axonal counts were taken to assess any axonal loss. Five nerves were examined for each treatment condition. The peroneal axonal counts five days after control (saline), bupivacaine, and 2.3% 2-chloroprocaine/0.17% tetracaine injections were 2063±30 (SEM), 1959±81, and 1993±45, respectively.

sciatic nerve [2] = details: rat, in vivo
Text: Sections were also taken across the sciatic nerve five days after injection with local anesthetic(s) and examined for gross pathological injury.

[3] = between 1990 and 1997; Medline database; cited from earlier work
[4] = 0.17% tetracaine + 2.3% 2-chloroprocaine
[5] = 2.0% lidocaine, 0.17% tetracaine + 2.3% 2-chloroprocaine
[6] = withdrawal to pinch, 2.0% lidocaine, 0.5% bupivacaine, 0.17% tetracaine + 2.3% 2-chloroprocaine

| Compound | duration of sensory block (in words) (sciatic nerve [1]; [4]) | onset of sensory block (in words) (sciatic nerve [1]; [5]) | duration of full sensory block (until it started to decay) (sciatic nerve [1]; [6]) | onset of sensory block relative to 2.0% lidocaine (sciatic nerve [1]; 0.5% bupivacaine vs 2.0% lidocaine) [times slower] | time to achieve full sensory block (onset) (sciatic nerve [1]; withdrawal to pinch, 0.5% bupivacaine, 0.17% tetracaine + 2.3% 2-chloroprocaine, same volume, 5 rats) [min] | total axonal counts compared with saline controls (in words) (rat peroneal nerve) | peroneal total axonal counts (± SEM) (rat peroneal nerve) | light microscopic appearance of sciatic nerve at site of injection (sciatic nerve [2]) | deaths (e.g., heart arrest, myocardial infarction, accidental overdose) [3] [deaths] | onset of block at the first time point tested (sciatic nerve [1]; 2.0% lidocaine, 2 minutes after injection, sensory block, 5 rats) [%] | sensory block achieved (sciatic nerve [1]; 0.22% tetracaine) | sensory block achieved (sciatic nerve [1]; 0.5% tetracaine) | motor blockade (sciatic nerve [1]; tetracaine studies, all animals, data not shown) |
| --- | --- | --- | --- | --- | --- | --- | --- | --- | --- | --- | --- | --- | --- |
| CCN(CC)CCOC(=O)c1ccc(N)cc1Cl [2-chloroprocaine] | substantially shorter without co-administration of tetracaine | slower than with co-administration of tetracaine | about 30 minutes |  |  |  |  |  |  |  |  |  |  |
| CCCCN1CCCCC1C(=O)Nc1c(C)cccc1C (stereo not drawn) [bupivacaine] |  |  | 60 min | 4 | 8 | no significant difference | 1959±81 | indistinguishable from saline controls | 102 |  |  |  |  |
| CCN(CC)CC(=O)Nc1c(C)cccc1C [lidocaine] |  | nearly immediate | about 45 minutes |  |  | significantly reduced | 1602±167 | marked edema and neural damage |  | 100 |  |  |  |
| CCCCNc1ccc(C(=O)OCCN(C)C)cc1 [tetracaine] | dissipated rapidly | slow onset |  |  |  |  |  |  |  |  | less than 60% | less than 60% | complete, prolonged motor blockade |
